Experimental data: patent publication US10987357B2, “Aerosolized fluoroquinolones and uses thereof” (Horizon Orphan, LLC, priority 2005, dated 2021)
In brackets after ≈: the same amount, converted by molar mass. Read-outs that look alike come from different tables or passages of the source.

How the values were obtained:
PAM1032 [1] = test: In vitro pharmacodynamic (hollow fiber) model of infection; format: cell-based, Pseudomonas aeruginosa; conditions: for reduction in bacterial counts: half-life 10 minutes
Description: (§1) The in vitro pharmacodynamic model consists of a central (analogous “serum” compartment) and peripheral (“extravascular”) compartment. The peripheral compartments consist of artificial capillary units (Unisyn, Hopkinton, Mass.) arranged in series with the central compartment. Each capillary unit has a bundle of small semi-permeable fibers with a molecular size retention of ca. 10,000 MW to allow passage of nutrients but not bacteria. The entire system is set up in a dry heat incubator adjusted to 37° C.
(§2) Both the central and peripheral compartments were filled with Mueller-Hinton broth. Each peripheral compartment (capillary unit and tubing) contained ca. 23 ml of growth medium.
(§3) Bacteria were introduced into the peripheral chamber of the model and allowed to grow for 2 hours prior to the first “dose” of drug. Drug doses were administered into the central compartment and pumped to peripheral chambers by a peristaltic pump. Concentrations in the model declined according to first order elimination (half-life) by dilution of the central compartment with drug free medium introduced by an additional peristaltic pump adjusted to the desired clearance.
(§4) Samples (0.3 ml) were collected from peripheral compartments at various intervals for determination of drug and bacterial concentrations. Samples were collected from the peripheral compartments and assayed for drug concentrations by HPLC.
(§5) Of the resulting dilution, 2.3 ml was injected into each peripheral chamber of the hollow-fiber bioreactors (Unisyn, Hopkinton, Mass.).

PAM1020 [2] = test: Time-kill, exponentially grown cells (Experiment 1); format: cell-based, P. aeruginosa; conditions: 64 ug/ml ([…] MIC), 10 minutes
Description: At appropriate times, 1 ml of each exposure culture was centrifuged for 2 minutes, the pellet was washed twice with 1 ml of drug-free MHB, and re-suspended in 1 ml of MHB. The viable cell numbers were enumerated by plating serially diluted samples (in duplicates) on MHB plates by the drop (10 ul) plating method. The limit of detection was 100 CFU/ml. Killing is reported as the log reduction calculated relative to cell count at the time of initiation of antibiotic exposure. Relative antibiotic concentrations (relative to MIC of the corresponding strains) are used.

physchem [3] = test: physchem
Description: This solution was titrated with 1 N HCl. Measured aliquots of HCl were added and the pH recorded after each addition. Titration was continued till a pH of 1.
Vep volume of titrant added till the equivalence point; [OH^−]=hydroxide ion concentration=Kw/[…]; [H^+]=hydronium ion concentration=10^−pH.

[4] = system: colony biofilms of PAM1032; format: cell-based, P. aeruginosa; conditions: 10 minutes of exposure
Description: The viable cell numbers were enumerated by plating serially diluted samples (in duplicates) on MHB plates by the drop (10 ul) plating method.

PAM1032 [5] = format: cell-based, P. aeruginosa; conditions: PAM1032, genotype nalB
Source text: (§6) . Those were chosen based on what is known about conditions and growth of PA in a cystic fibrosis (CF) lung. Four isogenic strains of P. aeruginosa were used for these experiments (Table 2).

PAM1020 [6] = test: microbe, parasite or virus in culture; format: cell-based, P. aeruginosa; conditions: Pseudomonas aeruginosa, read-out: Levofloxacin MIC
Source text: as §6

PAM1582 [7] = format: cell-based, Pseudomonas aeruginosa; conditions: for reduction in bacterial counts: half-life 10 minutes
Description: as §1, §2, §3, §4, §5

[8] = Tolerability of aerosol levofloxacin in a healthy human subject
PAM1032 [9] = format: cell-based, P. aeruginosa
Description: Overnight cultures were grown aerobically overnight in Mueller-Hinton Broth and next diluted 1:10000 in MEM which filled growth flasks to the very top. Cultures were grown without shaking to OD˜0.3 at 37° C. […] Other than decreased aeration, antibiotic concentration, time of exposure, and determination of viable cell counts were the same as in Experiments 1 and 2.

[10] = system: P. aeruginosa strain PAM 1723; test: Mouse lung infection efficacy model; conditions: Pseudomonas aeruginosa, PAM1723, in Mus musculus
Description: The inoculum is adjusted to ca. 5×10^6 CFU/ml by correlation of absorbance at 600 nm with predetermined plate counts. […] On day 5, mice are infected by an intratracheal instillation of 0.05 ml of inoculum while under isoflurane anesthesia (5% isoflurane in oxygen running at 4 L/min). […] Mice are sacrificed 1 and 4 hours after treatment, their lungs removed, homogenized and plated to determine colony counts.

[11] = 28-day GLP inhalation toxicology study
physchem [12] = test: physchem; remark: listed apart in the source
Source text: The buffers used were HCL (pH 1,2), acetate (pH 4,5), phosphate (pH 6,7,8) and borate (9,10).

PAM1582 [13] = test: Levofloxacin MIC of hollow fiber test strain; format: cell-based; conditions: Pseudomonas aeruginosa, read-out: Levofloxacin MIC
Source text: Pseudomonas aeruginosa PAM1032 and PAM1582. […]

[14] = Rat pharmacokinetic model (IV vs microspray aerosol, intratracheal); format: in vivo, rats; conditions: 10 mg/kg; for AUC: epithelial lining fluid (ELF)
Description: […] Blood samples are taken at various times over 3 hours to determine the plasma pharmacokinetic parameters. […] The plasma and tissue concentrations are determined by an HPLC method and the data are then fit using WinNonlin.

[15] = 4 day non-GLP ascending dose inhalation toxicology study; conditions: 24 hours after the last dose
[16] = in vivo
[17] = in vivo; cited from earlier work
[18] = 4 day GLP inhalation toxicology study

In the case of `C[C@H]1COc2c(N3CCN(C)CC3)c(F)cc3c(=O)c(C(=O)O)cn1c23` [Levofloxacin, levofloxacin], the “time to maximum bactericidal effect” value (PAM1032 [1]; Cmax 600 ug/ml) is reported as 30 min, the “reduction in bacterial counts” value (PAM1032 [1]; Cmax 600 ug/ml) is reported as 5 log and the “time to maximum bactericidal effect” value (PAM1032 [1]; Cmax 1000 ug/ml) is reported as ≤ 10 min. The “reduction in bacterial counts” value (PAM1032 [1]; Cmax 1000 ug/ml) was 5 log, the bacterial reduction (PAM1032 [1]; Cmax of both 600 and 1000 ug/ml, strain with MIC of 1 ug/ml) was ≤ 99.9999% and the “maximum killing, decrease in viable cell counts” value (PAM1020 [2]) was 5.5 log. For the same compound, the “acidic pKa” value (physchem [3]) was ~1.6, the pKb (physchem [3]) was 7.7 and the pKa (physchem [3]; acidic pKa) was < 2. For the same compound, the pKa (physchem [3]; pKa) was 6.3, the pKa (physchem [3]; pKa of the basic site as stated in text) was ~6.8 and the “maximum observed bactericidal activity against biofilms” value [4] was 99%. For the same compound, the “Levofloxacin MIC” value (PAM1032 [5]) was 1 µg/mL, the “Levofloxacin MIC” value (PAM1032 [5]; listed as levofloxacin) was 1.0 µg/mL and the MIC (PAM1020 [6]) was 0.25 µg/mL (≈ 0.692 µM). The bacterial reduction (PAM1582 [7]) was “up to 99.99%”, the “reduction in bacterial counts” value (PAM1582 [7]; Cmax 600 ug/ml) was 3 log and the “reduction in bacterial counts” value (PAM1582 [7]; Cmax 1000 ug/ml) was 4 log. The bacterial reduction (PAM1582 [7]; listed as levofloxacin) was “up to 99.999%”, the “tolerability of hypotonic solutions for inhalation” value ([8]; concentrations greater than 10 mg/ml) was “poorly tolerated” and the overall tolerability ([8]; first test) was “well tolerated”. For the same compound, the acute tolerability ([8]; second test: 4 ml of 18.75 mg/mL, Aerogen Small, estimated RDD 35 mg) was “very comparable to the first test”, the “adverse effects in the throat, airway or lungs” value ([8]; third test: 4 mL of 18.75 mg/mL, PARI Large, estimated RDD ~55 mg) was “no adverse effects in the throat, airway or lungs” and the “stronger killing at longer exposure intervals (difference)” value (PAM1032 [9]) was “less than 1 log”. For the same compound, the log reduction at 25 mg/kg ([10]; 1 h, read-out: DeltaLOG CPU 1 hr, route IT, dose 25 mg/kg, 1 hr post-drug administration) was 2.48, the log reduction at 25 mg/kg ([10]; 4 h, read-out: DeltaLOG CPU 4 hr, route IT, dose 25 mg/kg, 4 hr post-drug administration) was 1.45 and the log reduction at 25 mg/kg ([10]; ip, 1 h, read-out: DeltaLOG CPU 1 hr, route IP, dose 25 mg/kg, 1 hr post-drug administration) was 1.4. For the same compound, the survival ([11]; 28 day treatment period) was “all animals survived”, the necropsy ([11]; after the last dose) was “dose related squamous cell hyperplasia of the larynx” and the pKa (physchem [12]) was 5.91. The MIC (PAM1582 [13]) was 32 µg/mL, the “F, % from Lung vs. IV” value ([14]; IT) was 86% and the AUC ([14]; rat, inhaled or intranasal, IT) was 12100 ng·h/mL. For the same compound, the AUC ([14]; rat, iv) was 10500 ng·h/mL, the half-life ([14]; rat, in vivo, inhaled or intranasal, IT, read-out: Serum t1/2 (converted)) was 24 min and the AUC(0-inf) ([14]; rat, serum, inhaled or intranasal, IT) was 3280 ng·h/mL. For the same compound, the necropsy [15] was “did not show any findings”, the “Aerosol Tolerability and Taste” value [16] was “chemical taste, somewhat bitter,” and the “penetration into lung tissues” value [17] was “penetrates well into lung tissues”. For the same compound, the survival ([18]; 4 day treatment period) was “all animals survived” and the necropsy ([18]; after the last dose) was “did not show any findings”.
